Test results taken from ChEMBL document CHEMBL3813616, “Discovery of novel 7-azaindoles as PDK1 inhibitors” (Bioorg Med Chem Lett, 2016).

How the values were obtained:
[1] = molecular target: T1, 3-phosphoinositide-dependent protein kinase 1 (Homo sapiens) (UniProt O15530); assay: Selectivity ratio of IC50 for PDK1-mediated AKT phosphorylation at Thr308 in human PC3 cells to IC50 for human His6-tagged PDK1; type: cell-based; conditions: PC-3
T1 sequence (whole entry): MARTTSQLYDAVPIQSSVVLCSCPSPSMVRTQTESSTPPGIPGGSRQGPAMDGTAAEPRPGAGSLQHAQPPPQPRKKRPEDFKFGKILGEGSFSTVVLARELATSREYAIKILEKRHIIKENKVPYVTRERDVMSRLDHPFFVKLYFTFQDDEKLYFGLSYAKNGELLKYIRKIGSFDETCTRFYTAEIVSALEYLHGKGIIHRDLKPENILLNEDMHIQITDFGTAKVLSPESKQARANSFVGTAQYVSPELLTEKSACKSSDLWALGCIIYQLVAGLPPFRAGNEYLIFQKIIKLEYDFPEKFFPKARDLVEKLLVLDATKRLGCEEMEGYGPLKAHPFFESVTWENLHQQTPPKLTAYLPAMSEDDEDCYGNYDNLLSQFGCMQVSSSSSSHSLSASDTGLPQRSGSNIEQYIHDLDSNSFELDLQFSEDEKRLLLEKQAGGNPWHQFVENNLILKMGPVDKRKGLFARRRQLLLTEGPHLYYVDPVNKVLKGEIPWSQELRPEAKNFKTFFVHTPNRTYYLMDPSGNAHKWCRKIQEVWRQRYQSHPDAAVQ

[2] = Efflux ratio of permeability from basolateral to apical over apical to basolateral side in human Caco2 cells; type: ADME, cell-based; conditions: Caco-2
[3] = molecular target: MAP kinase-activated protein kinase 3 (Homo sapiens) (UniProt Q16644); assay: Inhibition of human MAPKAPK3 (2 to 382 residues) assessed as enzyme activity at 1 uM using 33P ATP by radioactive filter binding assay; parameters: scale not given: the % may be the effect or the level left
MAP kinase-activated protein kinase 3 (Homo sapiens), sequence (Q16644 whole entry, looked up, the tested form may be a part): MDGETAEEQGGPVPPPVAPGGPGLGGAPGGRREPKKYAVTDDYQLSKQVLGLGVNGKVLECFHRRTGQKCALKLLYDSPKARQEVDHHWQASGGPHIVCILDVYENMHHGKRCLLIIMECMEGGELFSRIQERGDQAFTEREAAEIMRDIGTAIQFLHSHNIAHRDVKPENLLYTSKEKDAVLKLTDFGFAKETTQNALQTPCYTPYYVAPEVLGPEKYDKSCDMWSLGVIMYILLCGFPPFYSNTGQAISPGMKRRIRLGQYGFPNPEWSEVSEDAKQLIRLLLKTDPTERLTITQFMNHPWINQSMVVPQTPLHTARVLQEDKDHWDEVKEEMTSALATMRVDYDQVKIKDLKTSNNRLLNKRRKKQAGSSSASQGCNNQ

[4] = Solubility of the compound; type: physicochemical
[5] = molecular target: Aurora kinase C (Homo sapiens) (UniProt Q9UQB9); assay: Inhibition of AURKC (unknown origin) assessed as enzyme activity at 1 uM using 33P ATP by radioactive filter binding assay; parameters: scale not given: the % may be the effect or the level left
Aurora kinase C (Homo sapiens), sequence (Q9UQB9 whole entry): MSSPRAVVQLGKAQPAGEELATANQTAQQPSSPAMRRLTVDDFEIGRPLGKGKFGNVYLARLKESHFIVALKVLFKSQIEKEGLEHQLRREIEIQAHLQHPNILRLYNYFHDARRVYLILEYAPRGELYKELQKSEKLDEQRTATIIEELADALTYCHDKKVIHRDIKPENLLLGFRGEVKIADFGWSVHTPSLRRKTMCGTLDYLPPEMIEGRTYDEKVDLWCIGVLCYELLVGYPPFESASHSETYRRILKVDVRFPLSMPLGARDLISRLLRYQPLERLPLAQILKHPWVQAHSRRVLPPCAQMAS

[6] = molecular target: Serine/threonine-protein kinase Nek7 (Homo sapiens) (UniProt Q8TDX7); assay: Inhibition of NEK7 (unknown origin) assessed as enzyme activity at 1 uM using 33P ATP by radioactive filter binding assay; parameters: scale not given: the % may be the effect or the level left
Serine/threonine-protein kinase Nek7 (Homo sapiens), sequence (Q8TDX7 whole entry, looked up): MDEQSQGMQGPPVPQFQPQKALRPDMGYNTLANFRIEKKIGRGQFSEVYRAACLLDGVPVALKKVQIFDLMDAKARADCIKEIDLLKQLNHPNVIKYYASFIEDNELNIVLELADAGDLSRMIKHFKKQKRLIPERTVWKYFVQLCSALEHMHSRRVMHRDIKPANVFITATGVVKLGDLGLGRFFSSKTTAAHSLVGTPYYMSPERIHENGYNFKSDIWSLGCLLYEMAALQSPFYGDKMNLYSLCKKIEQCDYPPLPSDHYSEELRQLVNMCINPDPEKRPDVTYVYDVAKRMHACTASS

[7] = molecular target: Mitogen-activated protein kinase 10 (Homo sapiens) (UniProt P53779); assay: Inhibition of human JNK3alpha1 assessed as enzyme activity at 1 uM using 33P ATP by radioactive filter binding assay; parameters: scale not given: the % may be the effect or the level left
Mitogen-activated protein kinase 10 (Homo sapiens), sequence (P53779 whole entry, the tested form may be a part): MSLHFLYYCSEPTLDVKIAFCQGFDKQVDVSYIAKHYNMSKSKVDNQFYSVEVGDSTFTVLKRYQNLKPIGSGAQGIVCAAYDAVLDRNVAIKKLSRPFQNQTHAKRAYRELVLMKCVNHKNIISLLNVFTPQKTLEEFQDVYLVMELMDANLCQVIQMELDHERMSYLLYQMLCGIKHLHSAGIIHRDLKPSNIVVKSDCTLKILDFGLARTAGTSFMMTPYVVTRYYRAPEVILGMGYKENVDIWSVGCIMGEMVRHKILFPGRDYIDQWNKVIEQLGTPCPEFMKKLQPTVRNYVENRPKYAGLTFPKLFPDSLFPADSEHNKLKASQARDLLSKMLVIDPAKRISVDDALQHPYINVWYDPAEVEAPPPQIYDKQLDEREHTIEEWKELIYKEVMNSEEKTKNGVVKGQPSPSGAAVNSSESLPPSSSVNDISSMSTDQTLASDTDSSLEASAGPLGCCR

[8] = molecular target: Serine/threonine-protein kinase MARK2 (Homo sapiens) (UniProt Q7KZI7); assay: Inhibition of human MARK2 (2 to 691 residues) assessed as enzyme activity at 1 uM using 33P ATP by radioactive filter binding assay; parameters: scale not given: the % may be the effect or the level left
[9] = molecular target: Serine/threonine-protein kinase STK11 (Homo sapiens) (UniProt Q15831); assay: Inhibition of human LKB1 (1 to 433 residues) assessed as enzyme activity at 1 uM using 33P ATP by radioactive filter binding assay; parameters: scale not given: the % may be the effect or the level left
Serine/threonine-protein kinase STK11 (Homo sapiens), sequence (Q15831 whole entry, the tested form may be a part): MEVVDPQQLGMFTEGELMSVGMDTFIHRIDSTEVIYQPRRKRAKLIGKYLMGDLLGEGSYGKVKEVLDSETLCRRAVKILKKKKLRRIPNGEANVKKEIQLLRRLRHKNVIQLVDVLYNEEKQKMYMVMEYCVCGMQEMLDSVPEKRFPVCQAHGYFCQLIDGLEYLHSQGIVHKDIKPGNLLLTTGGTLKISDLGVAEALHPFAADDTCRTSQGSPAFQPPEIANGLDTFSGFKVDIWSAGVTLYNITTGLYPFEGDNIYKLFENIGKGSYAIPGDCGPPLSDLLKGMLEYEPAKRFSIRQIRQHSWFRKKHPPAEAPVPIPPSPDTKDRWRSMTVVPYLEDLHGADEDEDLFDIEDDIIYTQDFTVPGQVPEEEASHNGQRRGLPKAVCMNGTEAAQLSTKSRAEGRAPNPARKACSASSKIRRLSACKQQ

[10] = molecular target: Mitogen-activated protein kinase kinase kinase 7 (Homo sapiens) (UniProt O43318); assay: Inhibition of human TAB1 fused TAK1 (1 to 303 residues) assessed as enzyme activity at 1 uM using 33P ATP by radioactive filter binding assay; parameters: scale not given: the % may be the effect or the level left
Mitogen-activated protein kinase kinase kinase 7 (Homo sapiens), sequence (O43318 whole entry, the tested form may be a part): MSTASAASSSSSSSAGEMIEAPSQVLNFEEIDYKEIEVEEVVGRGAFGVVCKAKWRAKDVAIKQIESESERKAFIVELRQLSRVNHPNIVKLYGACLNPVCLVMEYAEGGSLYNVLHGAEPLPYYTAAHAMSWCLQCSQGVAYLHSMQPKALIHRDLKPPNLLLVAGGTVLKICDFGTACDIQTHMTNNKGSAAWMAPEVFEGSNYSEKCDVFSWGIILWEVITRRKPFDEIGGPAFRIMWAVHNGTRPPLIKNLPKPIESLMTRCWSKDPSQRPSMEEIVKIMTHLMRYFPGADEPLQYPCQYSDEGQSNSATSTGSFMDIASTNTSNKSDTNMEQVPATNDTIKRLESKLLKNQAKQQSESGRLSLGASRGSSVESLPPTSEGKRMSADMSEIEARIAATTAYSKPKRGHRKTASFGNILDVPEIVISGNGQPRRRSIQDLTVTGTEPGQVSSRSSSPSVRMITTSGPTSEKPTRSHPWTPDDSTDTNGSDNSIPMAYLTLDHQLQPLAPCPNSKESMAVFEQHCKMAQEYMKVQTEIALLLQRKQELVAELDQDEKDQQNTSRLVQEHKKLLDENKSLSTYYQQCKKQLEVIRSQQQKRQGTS

[11] = molecular target: Misshapen-like kinase 1 (Homo sapiens) (UniProt Q8N4C8); assay: Inhibition of human MINK1 (1 to 320 residues) assessed as enzyme activity at 1 uM using 33P ATP by radioactive filter binding assay; parameters: scale not given: the % may be the effect or the level left
[12] = molecular target: Tyrosine-protein kinase ZAP-70 (Homo sapiens) (UniProt P43403); assay: Inhibition of human ZAP70 (1 to 619 residues) assessed as enzyme activity at 1 uM using 33P ATP by radioactive filter binding assay; parameters: scale not given: the % may be the effect or the level left
[13] = molecular target: Mitogen-activated protein kinase kinase kinase kinase 2 (Homo sapiens) (UniProt Q12851); assay: Inhibition of human GCK (2 to 812 residues) assessed as enzyme activity at 1 uM using 33P ATP by radioactive filter binding assay; parameters: scale not given: the % may be the effect or the level left
[14] = molecular target: Serine/threonine-protein kinase 33 (Homo sapiens) (UniProt Q9BYT3); assay: Inhibition of human STK33 (1 to 514 residues) assessed as enzyme activity at 1 uM using 33P ATP by radioactive filter binding assay; parameters: scale not given: the % may be the effect or the level left
Serine/threonine-protein kinase 33 (Homo sapiens), sequence (Q9BYT3 whole entry, looked up, the tested form may be a part): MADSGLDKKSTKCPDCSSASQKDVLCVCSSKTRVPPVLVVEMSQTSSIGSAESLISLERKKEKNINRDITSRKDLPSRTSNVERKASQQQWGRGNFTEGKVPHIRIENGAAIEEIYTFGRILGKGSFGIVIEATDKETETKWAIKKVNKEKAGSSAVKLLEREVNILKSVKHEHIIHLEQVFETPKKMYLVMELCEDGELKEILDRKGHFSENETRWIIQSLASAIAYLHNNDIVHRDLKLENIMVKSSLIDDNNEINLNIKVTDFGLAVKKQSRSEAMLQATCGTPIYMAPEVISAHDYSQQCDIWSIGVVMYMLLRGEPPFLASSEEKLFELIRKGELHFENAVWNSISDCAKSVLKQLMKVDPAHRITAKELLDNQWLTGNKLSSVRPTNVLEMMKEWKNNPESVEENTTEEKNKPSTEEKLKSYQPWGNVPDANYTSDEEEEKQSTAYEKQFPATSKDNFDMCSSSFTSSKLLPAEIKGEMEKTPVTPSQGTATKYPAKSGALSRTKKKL

[15] = molecular target: Interleukin-1 receptor-associated kinase 1 (Homo sapiens) (UniProt P51617); assay: Inhibition of human IRAK1 (1 to 712 residues) assessed as enzyme activity at 1 uM using 33P ATP by radioactive filter binding assay; parameters: scale not given: the % may be the effect or the level left
[16] = molecular target: Mitogen-activated protein kinase kinase kinase 5 (Homo sapiens) (UniProt Q99683); assay: Inhibition of human ASK1 (670 to 950 residues) assessed as enzyme activity at 1 uM using 33P ATP by radioactive filter binding assay; parameters: scale not given: the % may be the effect or the level left
[17] = molecular target: T2, 3-phosphoinositide-dependent protein kinase 1 (Homo sapiens, UniProt O15530); assay: Inhibition of human PDK1
T2 sequence (O15530 whole entry): T1 sequence (whole entry)

[18] = molecular target: Receptor-interacting serine/threonine-protein kinase 2 (Homo sapiens) (UniProt O43353); assay: Inhibition of human RIPK2 (2 to 311 residues) assessed as enzyme activity at 1 uM using 33P ATP by radioactive filter binding assay; parameters: scale not given: the % may be the effect or the level left
Receptor-interacting serine/threonine-protein kinase 2 (Homo sapiens), sequence (O43353 whole entry, the tested form may be a part): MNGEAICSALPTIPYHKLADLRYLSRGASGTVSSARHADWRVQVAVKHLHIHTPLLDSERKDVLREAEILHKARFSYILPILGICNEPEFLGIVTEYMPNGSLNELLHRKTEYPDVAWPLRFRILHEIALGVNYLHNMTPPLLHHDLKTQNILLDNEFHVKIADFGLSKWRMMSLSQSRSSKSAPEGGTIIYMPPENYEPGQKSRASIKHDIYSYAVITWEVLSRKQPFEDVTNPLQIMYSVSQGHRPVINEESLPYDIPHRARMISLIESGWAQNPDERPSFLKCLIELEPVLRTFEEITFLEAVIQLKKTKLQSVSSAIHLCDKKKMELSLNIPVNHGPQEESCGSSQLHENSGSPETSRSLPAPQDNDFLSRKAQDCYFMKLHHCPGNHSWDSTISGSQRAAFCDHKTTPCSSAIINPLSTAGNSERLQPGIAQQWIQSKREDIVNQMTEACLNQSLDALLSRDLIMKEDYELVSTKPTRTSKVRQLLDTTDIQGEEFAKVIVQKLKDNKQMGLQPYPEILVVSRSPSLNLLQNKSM

[19] = molecular target: Eukaryotic translation initiation factor 2-alpha kinase 3 (Homo sapiens) (UniProt Q9NZJ5); assay: Inhibition of human EIF2AK3 (536 to 1116 residues) assessed as enzyme activity at 1 uM using 33P ATP by radioactive filter binding assay; parameters: scale not given: the % may be the effect or the level left
[20] = molecular target: Mitogen-activated protein kinase kinase kinase 11 (Homo sapiens) (UniProt Q16584); assay: Inhibition of human MLK3 (96 to 386 residues) assessed as enzyme activity at 1 uM using 33P ATP by radioactive filter binding assay; parameters: scale not given: the % may be the effect or the level left
Mitogen-activated protein kinase kinase kinase 11 (Homo sapiens), sequence (Q16584 whole entry, looked up, the tested form may be a part): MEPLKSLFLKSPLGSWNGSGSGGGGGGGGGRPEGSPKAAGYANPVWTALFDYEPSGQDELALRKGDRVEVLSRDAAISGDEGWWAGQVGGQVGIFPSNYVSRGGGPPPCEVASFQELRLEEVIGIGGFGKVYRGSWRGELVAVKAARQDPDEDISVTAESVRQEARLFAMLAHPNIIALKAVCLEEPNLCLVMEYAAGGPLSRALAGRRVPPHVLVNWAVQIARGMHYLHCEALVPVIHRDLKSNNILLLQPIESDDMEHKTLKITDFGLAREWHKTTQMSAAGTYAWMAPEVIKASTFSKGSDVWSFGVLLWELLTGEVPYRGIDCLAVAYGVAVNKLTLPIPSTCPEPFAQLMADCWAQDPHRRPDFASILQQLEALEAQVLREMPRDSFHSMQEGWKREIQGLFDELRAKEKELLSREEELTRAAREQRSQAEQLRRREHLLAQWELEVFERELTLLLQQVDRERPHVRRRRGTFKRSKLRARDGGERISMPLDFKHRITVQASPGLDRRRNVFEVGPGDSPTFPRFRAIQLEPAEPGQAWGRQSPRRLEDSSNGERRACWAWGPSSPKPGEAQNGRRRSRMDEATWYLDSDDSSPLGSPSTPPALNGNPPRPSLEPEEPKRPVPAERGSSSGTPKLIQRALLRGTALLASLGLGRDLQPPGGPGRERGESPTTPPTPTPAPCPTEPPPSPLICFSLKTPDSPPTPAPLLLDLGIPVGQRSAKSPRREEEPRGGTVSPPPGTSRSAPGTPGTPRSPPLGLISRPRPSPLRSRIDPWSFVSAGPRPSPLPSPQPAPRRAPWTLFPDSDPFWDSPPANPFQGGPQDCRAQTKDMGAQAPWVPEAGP

[21] = molecular target: Death-associated protein kinase 1 (Homo sapiens) (UniProt P53355); assay: Inhibition of human DAPK1 (1 to 363 residues) assessed as enzyme activity at 1 uM using 33P ATP by radioactive filter binding assay; parameters: scale not given: the % may be the effect or the level left
[22] = molecular target: Serine/threonine-protein kinase BRSK1 (Homo sapiens) (UniProt Q8TDC3); assay: Inhibition of human BRSK1 (2 to 778 residues) assessed as enzyme activity at 1 uM using 33P ATP by radioactive filter binding assay; parameters: scale not given: the % may be the effect or the level left
[23] = molecular target: Mitogen-activated protein kinase 1 (Homo sapiens) (UniProt P28482); assay: Inhibition of human ERK2 (2 to 360 residues) assessed as enzyme activity at 1 uM using 33P ATP by radioactive filter binding assay; parameters: scale not given: the % may be the effect or the level left
[24] = molecular target: Ephrin type-B receptor 2 (Homo sapiens) (UniProt P29323); assay: Inhibition of human EPHB2 (560 to 987 residues) assessed as enzyme activity at 1 uM using 33P ATP by radioactive filter binding assay; parameters: scale not given: the % may be the effect or the level left
[25] = molecular target: Interleukin-1 receptor-associated kinase 4 (Homo sapiens) (UniProt Q9NWZ3); assay: Inhibition of human IRAK4 (14 to 460 residues) assessed as enzyme activity at 1 uM using 33P ATP by radioactive filter binding assay; parameters: scale not given: the % may be the effect or the level left
[26] = molecular target: Dual specificity mitogen-activated protein kinase kinase 6 (Homo sapiens) (UniProt P52564); assay: Inhibition of human MKK6 (2 to 334 residues) assessed as enzyme activity at 1 uM using 33P ATP by radioactive filter binding assay; parameters: scale not given: the % may be the effect or the level left
Dual specificity mitogen-activated protein kinase kinase 6 (Homo sapiens), sequence (P52564 whole entry, the tested form may be a part): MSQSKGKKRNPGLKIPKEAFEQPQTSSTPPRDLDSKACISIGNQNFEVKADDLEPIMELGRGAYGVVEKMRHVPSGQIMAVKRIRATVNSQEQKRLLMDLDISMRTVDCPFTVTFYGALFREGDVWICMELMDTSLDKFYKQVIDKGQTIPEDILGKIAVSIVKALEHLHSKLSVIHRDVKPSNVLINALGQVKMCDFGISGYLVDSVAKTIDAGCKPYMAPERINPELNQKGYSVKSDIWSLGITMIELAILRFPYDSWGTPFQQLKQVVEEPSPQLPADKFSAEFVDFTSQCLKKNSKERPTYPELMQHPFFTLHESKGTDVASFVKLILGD

With `CCCCc1cc(-c2c[nH]c3ncc(-c4cnn(C5CCNCC5)c4)cc23)nc(N)n1` the Ratio IC50 [1] was 30 and the Ratio [2] was 37.
Work on `CCCCc1cc(-c2c[nH]c3ncccc23)nc(N)n1` yielded an Activity [3] of 17%, a solubility [4] of over 1000 µg/mL and an Activity [5] of -15%. The Activity [6] was 4% and the Activity [7] was 1%.
`Nc1nccc(-c2c[nH]c3ncccc23)n1` [MERIOLIN 1] gave an Activity [3] of -8%, an Activity [8] of -23% and an Activity [9] of -18%. It also gave an Activity [10] of -82%, an Activity [11] of -78% and an Activity [12] of -3%. The Activity [5] was -3%, the Activity [13] was -83% and the Activity [14] was -23%. It also gave an Activity [6] of -2%, an Activity [7] of -11% and an Activity [15] of -49%. For the same compound, the Activity [16] was -4%, the IC50 [17] was 5.9 µM and the Activity [18] was -13%. The Activity [19] was -9%, the Activity [20] was -35% and the Activity [21] was -28%. For the same compound, the Activity [22] was -4%, the Activity [23] was -14% and the Activity [24] was 15%. The Activity [25] was -36% and the Activity [26] was -13%.
